Patent US7412284B2, “Apparatus for electroporation mediated delivery for drugs and genes” (Genetronics, Inc., priority 1997, dated 2008)

System: basal cell carcinomas and melanomas
Test: Clinical trials of bleomycin-EPT for basal cell carcinomas and melanomas
Assay type: in vivo, humans
Settings: for % RESPONSE CR D′D / % RESPONSE CR D′E′ / TUMOR RESPONSE CR D′D / TUMOR RESPONSE CR D′E′: CR=complete response; for % RESPONSE NE D′D / % RESPONSE NE D′E′ / TUMOR RESPONSE NE D′D / TUMOR RESPONSE NE D′E′: NE=no effect
Description: The following examples illustrate the use of EPT in cell lines, animals and humans. Example 1 illustrates EPT in poorly differentiated human pancreatic tumors (Panc-3) xenografted subcutaneously on the flank of nude mice. […] Example 4 provides in vitro data for EPT utilizing low voltage (electric field) and long pulse length. The parameters for EPT are described in the examples; for Example 1 and for the head and neck clinical trials, the nominal electric field was 1300 V/cm and 6 pulses for 99-100 μsec, spaced at 1 second intervals. The clinical trials (Example 2) used similar parameters, however the electric field was 1130 V/cm. (Nominal electric field (V/cm) is applied voltage (V) across the needle pairs divided by the distance between the needle pairs (cm).) The Examples illustrate the use of EPT for effectively killing undesired cell populations (e.g., a tumor) in vitro and in vivo.
The effectiveness of bleomycin-EPT on the tumors was to be assessed by the end of the eight-week period using the same tumor response criteria as employed in Example 1.
The concentration of bleomycin administered was 5 U/1 mL. The dosages of bleomycin were administered as follows: […]

[1] = BCC nodules, PR=partial response
[2] = Mel nodules, PR=partial response
[3] = Other nodules, PR=partial response
[4] = Total nodules, PR=partial response

## bleomycin
BCC nodules
  % RESPONSE CR D′D: 0%
  % RESPONSE CR D′E′: 98%
  TUMOR RESPONSE CR D′D: 0/6
  TUMOR RESPONSE CR D′E′: 43/44
  % RESPONSE NE D′D: 83%
  % RESPONSE NE D′E′: 0%
  TUMOR RESPONSE NE D′D: 5/6
BCC nodules, less than 50% reduction in tumor volume
  TUMOR RESPONSE NE D′E′: 0/44
BCC nodules, PR=50% or greater reduction in tumor volume
  TUMOR RESPONSE PR D′E′: 1/44
[1]
  % RESPONSE PR D′D: 17%
  % RESPONSE PR D′E′: 2%
  TUMOR RESPONSE PR D′D: 1/6
Mel nodules
  % RESPONSE CR D′D: 0%
  % RESPONSE CR D′E′: 91%
  TUMOR RESPONSE CR D′D: 0/5
  TUMOR RESPONSE CR D′E′: 53/58
  % RESPONSE NE D′D: 100%
  % RESPONSE NE D′E′: 2%
  TUMOR RESPONSE NE D′D: 5/5
  TUMOR RESPONSE NE D′E′: 1/58
[2]
  % RESPONSE PR D′D: 0%
  % RESPONSE PR D′E′: 7%
  TUMOR RESPONSE PR D′D: 0/5
  TUMOR RESPONSE PR D′E′: 4/58
Other nodules
  % RESPONSE CR D′D: 0%
  % RESPONSE CR D′E′: 80%
  TUMOR RESPONSE CR D′D: 0/3
  TUMOR RESPONSE CR D′E′: 4/5
  % RESPONSE NE D′D: 100%
  % RESPONSE NE D′E′: 0%
  TUMOR RESPONSE NE D′D: 3/3
  TUMOR RESPONSE NE D′E′: 0/5
[3]
  % RESPONSE PR D′D: 0%
  % RESPONSE PR D′E′: 20%
  TUMOR RESPONSE PR D′D: 0/3
  TUMOR RESPONSE PR D′E′: 1/5
Total nodules
  % RESPONSE CR D′D: 0%
  % RESPONSE CR D′E′: 93%
  TUMOR RESPONSE CR D′D: 0/14
  TUMOR RESPONSE CR D′E′: 100/107
  % RESPONSE NE D′D: 93%
  % RESPONSE NE D′E′: 1%
  TUMOR RESPONSE NE D′D: 13/14
  TUMOR RESPONSE NE D′E′: 1/107
[4]
  % RESPONSE PR D′D: 7%
  % RESPONSE PR D′E′: 6%
  TUMOR RESPONSE PR D′D: 1/14
  TUMOR RESPONSE PR D′E′: 6/107
